Assay [1] has as its target T1, HDAC7 (Homo sapiens, UniProt Q8WUI4).
T1 sequence (Q8WUI4 1-952): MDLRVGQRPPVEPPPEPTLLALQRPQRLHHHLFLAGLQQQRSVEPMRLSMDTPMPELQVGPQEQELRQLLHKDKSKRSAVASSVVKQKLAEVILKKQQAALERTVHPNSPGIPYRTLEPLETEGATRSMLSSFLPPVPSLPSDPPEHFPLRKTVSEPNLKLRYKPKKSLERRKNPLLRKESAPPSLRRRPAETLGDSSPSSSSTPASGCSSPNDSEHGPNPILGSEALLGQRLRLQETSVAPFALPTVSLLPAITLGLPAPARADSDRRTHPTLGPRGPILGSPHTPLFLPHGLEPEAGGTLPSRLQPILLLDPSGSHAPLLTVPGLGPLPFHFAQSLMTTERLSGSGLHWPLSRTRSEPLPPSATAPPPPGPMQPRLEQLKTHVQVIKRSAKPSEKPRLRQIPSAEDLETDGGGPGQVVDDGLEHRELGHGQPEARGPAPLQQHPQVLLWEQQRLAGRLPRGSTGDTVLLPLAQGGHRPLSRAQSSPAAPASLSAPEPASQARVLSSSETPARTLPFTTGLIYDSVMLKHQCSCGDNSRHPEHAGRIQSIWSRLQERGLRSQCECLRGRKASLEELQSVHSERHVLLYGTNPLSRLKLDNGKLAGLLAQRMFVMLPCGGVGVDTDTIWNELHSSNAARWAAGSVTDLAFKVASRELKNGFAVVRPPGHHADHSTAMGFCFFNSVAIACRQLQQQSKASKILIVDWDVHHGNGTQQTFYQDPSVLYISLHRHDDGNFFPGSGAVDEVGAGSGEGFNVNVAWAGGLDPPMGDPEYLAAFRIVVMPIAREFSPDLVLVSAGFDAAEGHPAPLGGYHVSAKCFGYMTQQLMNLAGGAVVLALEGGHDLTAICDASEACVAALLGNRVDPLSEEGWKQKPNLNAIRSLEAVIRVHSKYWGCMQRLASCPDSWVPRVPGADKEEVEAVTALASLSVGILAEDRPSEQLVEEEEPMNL
Put plainly: HDAC biochemical activity measurement (fluorescent substrate deacetylation).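 Note: fluorogenic deacetylation assay using acetyl-lysine substrate at 20 µM, enzyme and compound incubated 30 min at 37 °C, then developer added, fluorescence read at 360/460 nm.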 Conditions: HDAC7; 37° C. 30 minutes.

The test system of assay [2] is SGC-7901 (human gastric cancer cells). Put plainly: MTT cancer cell growth inhibition. In kind it is cell-based. Conditions: MTT, 72 hours incubation, SGC-7901 cells, read-out: GI50 SGC-7901. The gist of the method:
(§1)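 GI50 values come from viability measured by MTT reduction at 570 nm. Plated overnight at 1500 cells per well, cultures received drug in three parallel wells across 10^−5–10^−10 M final and were incubated 72 h at 37° C. under 5% CO2 before MTT for 4 h.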

For assay [3], the system named is A549 (human lung cancer cells). Put plainly: MTT cancer cell growth inhibition. It counts as cell-based. Conditions: Homo sapiens, A549, 72 h, MTT, 72 hours incubation, read-out: GI50 A54. The method, boiled down: as §1
In assay [4] the test system is HCC827 (human non-small cell lung cancer cells). Put plainly: MTT cancer cell growth inhibition. It counts as cell-based. Conditions: MTT, 72 hours incubation, HCC827 cells, read-out: GI50 HCC827. The gist of the method:
as §1

Assay [5] has as its system MOLT-4 (human acute lymphoblastic leukemia cells). Put plainly: MTT cancer cell growth inhibition. In kind it is cell-based. Conditions: MTT, 72 hours incubation, read-out: GI50 Mol. The gist of the method: as §1
Assay [6] deals with Bel-7402 (human hepatoma cells). Put plainly: MTT cancer cell growth inhibition. In kind it is cell-based. Conditions: MTT, 72 hours incubation, Bel-7402 cells, read-out: GI50 Bel-7402. The gist of the method: as §1
Assay [7] relates to KBM5-T315I (human chronic myelogenous leukemia). Put plainly: MTT cancer cell growth inhibition. In kind it is cell-based. Conditions: Homo sapiens, 72 h, MTT, 72 hours incubation, KBM5-T315I cells; read-out: GI50 KBM5-T315I. The method, boiled down: as §1
The subject of assay [8] is MDA-MB-231 (breast cancer cells). Put plainly: MTT cancer cell growth inhibition. In kind it is cell-based. The gist of the method: as §1
Assay [9] has as its system H1975 (non-small cell lung adenocarcinoma). Put plainly: MTT cancer cell growth inhibition. It counts as cell-based. Conditions: MTT, 72 hours incubation, H1975 cells, read-out: GI50 H1975. The method, boiled down:
as §1

Assay [10] has as its system Hela (human cervical cancer cells). Put plainly: MTT cancer cell growth inhibition. In kind it is cell-based. Conditions: MTT, 72 hours incubation, read-out: GI50 Hela. The method, boiled down:
as §1

Assay [11] concerns K562 (human leukemia cells). Put plainly: MTT cancer cell growth inhibition. In kind it is cell-based. Conditions: Homo sapiens, K562, 72 h, MTT, 72 hours incubation, K562 cells; read-out: GI50 K562. The gist of the method: as §1
Assay [12] deals with Huh-7 (human hepatoma cells). Put plainly: MTT cancer cell growth inhibition. It counts as cell-based. Conditions: Homo sapiens, Huh-7, 72 h, MTT, 72 hours incubation, Huh-7 cells; read-out: GI50 Huh-7. The gist of the method:
as §1

Assay [13] has as its system MCF-7 (human breast cancer cells). Put plainly: MTT cancer cell growth inhibition. In kind it is cell-based. Conditions: Homo sapiens, MCF7, 72 h, 72 hours incubation, read-out: GI50 MCF. The gist of the method:
as §1

In assay [14] the test system is U937 (human leukemia cells). Put plainly: MTT cancer cell growth inhibition. It counts as cell-based. Conditions: Homo sapiens, U-937, 72 h, MTT, 72 hours incubation, read-out: GI50 U93. The gist of the method:
as §1

The test system of assay [15] is PANC-1 (Pac-1, human pancreatic cancer cells). Put plainly: MTT cancer cell growth inhibition. It counts as cell-based. Conditions: MTT, 72 hours incubation, read-out: GI50 PAN. The method, boiled down: as §1
Assay [16] relates to N-87 (human gastric cancer cells). Put plainly: MTT cancer cell growth inhibition. In kind it is cell-based. Conditions: Homo sapiens, 72 h, MTT, 72 hours incubation, N-87 cells; read-out: GI50 N-87. The method, boiled down: as §1
Assay [17] concerns HT1080 (human fibrosarcoma cells). Put plainly: MTT cancer cell growth inhibition. In kind it is cell-based. Conditions: MTT, 72 hours incubation, read-out: GI50 HT1. The method, boiled down:
as §1

Assay [18] concerns KBM-5 (human chronic myelogenous leukemia). Put plainly: MTT cancer cell growth inhibition. In kind it is cell-based. Conditions: MTT, 72 hours incubation, KBM-5 cells, read-out: GI50 KBM-5. The gist of the method:
as §1

Assay [19] concerns DU145 (human prostate cancer cells). Put plainly: MTT cancer cell growth inhibition. It counts as cell-based. Conditions: Homo sapiens, DU-145, 72 h, MTT, 72 hours incubation, read-out: GI50 Du1. The gist of the method:
as §1

For assay [20], the system named is lncap (prostate cancer cells). Put plainly: MTT cancer cell growth inhibition. In kind it is cell-based. Conditions: MTT, 72 hours incubation, read-out: GI50 lnca. The gist of the method:
as §1

In assay [21] the test system is BGC-823 (human gastric cancer cells). Put plainly: MTT cancer cell growth inhibition. It counts as cell-based. Conditions: Homo sapiens, BGC-823, 72 h, MTT, 72 hours incubation, read-out: GI50 BG. The method, boiled down:
as §1

The mark [22] stands for this setting: Homo sapiens, MOLT-4, 72 h, MOLT-4 cells.
Where [23] appears, read: Homo sapiens, MDA-MB-231, 72 h, read-out: GI50 MDA-MB-231, MTT, 72 hours incubation, MDA-MB-231 cells.
The mark [24] stands for this setting: Homo sapiens, HeLa, 72 h, Hela cells.
The mark [25] stands for this setting: Homo sapiens, PANC-1, 72 h, PANC-1 cells.
Setting [26] is: Homo sapiens, HT-1080, 72 h, HT1080 cells.
Where [27] appears, read: Homo sapiens, LNCaP, 72 h, lncap cells.

The source of these data is patent US10065990B2, “Cyclic peptide compound, and preparation method, pharmaceutical composition and use thereof” (HANGZHOU GUANYU BIO-MEDICAL CO., LTD, priority 2013, dated 2018).

What is called GI50 is the concentration giving 50% growth inhibition.

Where two headings read alike, the source gives them in different places.

For the molecule `C/C=C1\NC(=O)c2nc(ccc2SC)CNC(=O)C[C@@H](/C=C/CCSC(C)=O)OC(=O)[C@H](Cc2ccc(O)cc2)NC1=O` [Compound 201], the “IC50 HDAC7” value in assay [1] is reported as “no activity”. Also, the GI50 stood at 51 nM in assay [2] (Homo sapiens, SGC-7901, 72 h); 30 nM in assay [3] (A549 cells); 11 nM in assay [4] (Homo sapiens, HCC827, 72 h); 20 nM in [5] (setting [22]); 69 nM in assay [6] (Homo sapiens, Bel-7402, 72 h); 35 nM in assay [7]. Further, the GI50 in assay [8] (setting [23]) turned out to be 38 nM; in assay [9] (Homo sapiens, NCI-H1975, 72 h), 73 nM; in assay [10] (setting [24]), 30 nM; in assay [11], 35 nM; in assay [12], 90 nM; in assay [13] (MCF-7 cells), 40 nM. Further, the GI50 in assay [14] (U937 cells) was found to be 40 nM; in [15] (setting [25]), 60 nM; in assay [16] it was 32 nM; in assay [17] (setting [26]), 60 nM; in assay [18] (Homo sapiens, KBM5, 72 h), 29 nM; in assay [19] (DU145 cells), 30 nM. Besides, the GI50 in [20] (setting [27]) amounted to 70 nM; in assay [21] (BGC-823 cells), 50 nM.

As for `C/C=C1\NC(=O)c2ccc(SC)c(n2)CNC(=O)C[C@@H](/C=C/CCSC(=O)CCCCC)OC(=O)[C@H](C(C)C)NC1=O` [Compound 155], the “IC50 HDAC7” value in assay [1] was “no activity”. Further, the GI50 in assay [2] (Homo sapiens, SGC-7901, 72 h) came out at 33 nM; in assay [3] (A549 cells) it was 40 nM; in assay [4] (Homo sapiens, HCC827, 72 h), 23 nM; in assay [5] (setting [22]) it was 90 nM; in [6] (Homo sapiens, Bel-7402, 72 h), 41 nM; in assay [7], 56 nM. Moreover, the 50% growth inhibitory concentration (GI50) in [8] (setting [23]) stood at 11 nM; in assay [9] (Homo sapiens, NCI-H1975, 72 h), 23 nM; in assay [10] (setting [24]), 40 nM; in assay [11] it was 75 nM; in assay [12], 38 nM; in assay [13] (MCF-7 cells), 50 nM. The GI50 in assay [14] (U937 cells) was 40 nM; in assay [15] (setting [25]), 40 nM; in assay [16] it was 32 nM; in assay [17] (setting [26]) it was 90 nM; in assay [18] (Homo sapiens, KBM5, 72 h), 35 nM; in assay [19] (DU145 cells), 50 nM. Besides, the GI50 in [20] (setting [27]) and in [21] (BGC-823 cells) was 40 nM each time.

For `C=C1NC(=O)c2ccc(F)c(n2)CNC(=O)C[C@@H](/C=C/CCSC(C)=O)OC(=O)[C@H](C)NC1=O` [Compound 92], the “IC50 HDAC7” value in [1] is given as “no activity”. In addition, the GI50 came to 57 nM in assay [2] (Homo sapiens, SGC-7901, 72 h); 50 nM in [3]; 62 nM in [4] (Homo sapiens, HCC827, 72 h); 40 nM in assay [5] (Homo sapiens, MOLT-4, 72 h); 62 nM in [6] (Homo sapiens, Bel-7402, 72 h); 29 nM in assay [7]. Besides, the concentration for 50% growth inhibition (GI50) in assay [8] (setting [23]) was found to be 43 nM; in [9] (Homo sapiens, NCI-H1975, 72 h), 29 nM; in [10] (Homo sapiens, HeLa, 72 h) it was 40 nM; in assay [11], 22 nM; in [12] it was 43 nM; in assay [13], 20 nM. Also, the GI50 came to 20 nM in assay [14]; 60 nM in assay [15] (Homo sapiens, PANC-1, 72 h); 15 nM in assay [16]; 60 nM in assay [17] (Homo sapiens, HT-1080, 72 h); 42 nM in assay [18] (Homo sapiens, KBM5, 72 h); 20 nM in assay [19]. Further, the GI50 in [20] (Homo sapiens, LNCaP, 72 h) is 40 nM; in [21], 10 nM.

As to `C/C=C1\NC(=O)c2ccc(SC)c(n2)CNC(=O)C[C@@H](/C=C/CCSC(C)=O)OC(=O)[C@H](C(C)C)NC1=O` [Compound 167], the “IC50 HDAC7” value in assay [1] is given as “no activity”. For the same molecule, the GI50 in assay [2] was found to be 97 nM; in assay [3] (A549 cells), 30 nM; in assay [4], 28 nM; in assay [5] (MOLT-4 cells), 20 nM; in [6], 75 nM; in assay [7], 33 nM. For the same molecule, the GI50 worked out at 91 nM in assay [8] (read-out: GI50 MDA-MB-231, MTT, 72 hours incubation, MDA-MB-231 cells); 43 nM in [9]; 40 nM in assay [10] (Hela cells); 45 nM in [11]; 29 nM in assay [12]; 30 nM in [13] (MCF-7 cells). Further, the GI50 in assay [14] (U937 cells) came out at 20 nM; in assay [15] (PANC-1 cells), 70 nM; in assay [16] it was 42 nM; in assay [17] (HT1080 cells), 100 nM; in [18] it was 14 nM; in assay [19] (DU145 cells), 40 nM. For the same molecule, the GI50 amounted to 60 nM in assay [20] (lncap cells) and 40 nM in [21] (BGC-823 cells).
